# Experimental data taken from PubChem BioAssay AID1259407 (Chemical Carcinogenesis Research Information System (CCRIS), 2018).
# The source made the active and inactive calls. How the calls were made is not given here.
# System: CCRIS mutagenicity, Ames/micronucleus/aberration tests
# Assay: CCRIS mutagenicity studies
# [1] = Test System: AMES SALMONELLA TYPHIMURIUM, Strain/Indicator: TA98, Metabolic Activation: NONE, Method: STANDARD PLATE
# [2] = Test System: AMES SALMONELLA TYPHIMURIUM, Strain/Indicator: TA98, Metabolic Activation: RAT, LIVER, S-9, AROCLOR 1254, Method: STANDARD PLATE
# [3] = Test System: AMES SALMONELLA TYPHIMURIUM, Strain/Indicator: TA100, Metabolic Activation: NONE, Method: PREINCUBATION
# [4] = Test System: AMES SALMONELLA TYPHIMURIUM, Strain/Indicator: TA100, Metabolic Activation: NONE, Method: STANDARD PLATE
# [5] = Test System: AMES SALMONELLA TYPHIMURIUM, Strain/Indicator: TA100, Metabolic Activation: RAT, LIVER, S-9, AROCLOR 1254, Method: STANDARD PLATE
# [6] = Test System: AMES SALMONELLA TYPHIMURIUM, Strain/Indicator: TA1535, Metabolic Activation: NONE, Method: PREINCUBATION
# [7] = Test System: AMES SALMONELLA TYPHIMURIUM, Strain/Indicator: TA1535, Metabolic Activation: NONE, Method: STANDARD PLATE
# [8] = Test System: AMES SALMONELLA TYPHIMURIUM, Strain/Indicator: TA1535, Metabolic Activation: RAT, LIVER, S-9, AROCLOR 1254, Method: STANDARD PLATE
# [9] = Test System: AMES SALMONELLA TYPHIMURIUM, Strain/Indicator: TA1537, Metabolic Activation: NONE, Method: STANDARD PLATE
# [10] = Test System: AMES SALMONELLA TYPHIMURIUM, Strain/Indicator: TA1537, Metabolic Activation: RAT, LIVER, S-9, AROCLOR 1254, Method: STANDARD PLATE
# [11] = Test System: AMES SALMONELLA TYPHIMURIUM, Strain/Indicator: TA1538, Metabolic Activation: NONE, Method: STANDARD PLATE
# [12] = Test System: AMES SALMONELLA TYPHIMURIUM, Strain/Indicator: TA1538, Metabolic Activation: RAT, LIVER, S-9, AROCLOR 1254, Method: STANDARD PLATE
# [13] = Test System: AMES SALMONELLA TYPHIMURIUM, Strain/Indicator: TA100, Metabolic Activation: RAT, LIVER, S-9, PHENOBARBITAL, Method: STANDARD PLATE
# [14] = Test System: UDS RAT HEPATOCYTES, Strain/Indicator: THY INCORP, Metabolic Activation: NONE, Method: AUTORADIOGRAPHY
smiles,measurement,setting,value
C1OCOCO1,mutagenic call,"Test System: AMES SALMONELLA TYPHIMURIUM, Strain/Indicator: TA97, Metabolic Activation: HAMSTER, LIVER, S-9, AROCLOR 1254 (10 OR 30%), Method: PREINCUBATION",inactive; negative
same,mutagenic call,"Test System: AMES SALMONELLA TYPHIMURIUM, Strain/Indicator: TA97, Metabolic Activation: NONE, Method: PREINCUBATION",inactive; negative
same,mutagenic call,"Test System: AMES SALMONELLA TYPHIMURIUM, Strain/Indicator: TA97, Metabolic Activation: RAT, LIVER, S-9, AROCLOR 1254 (10 OR 30%), Method: PREINCUBATION",inactive; negative
same,mutagenic call,"Test System: AMES SALMONELLA TYPHIMURIUM, Strain/Indicator: TA98, Metabolic Activation: HAMSTER, LIVER, S-9, AROCLOR 1254 (10 OR 30%), Method: PREINCUBATION",inactive; negative
same,mutagenic call,"Test System: AMES SALMONELLA TYPHIMURIUM, Strain/Indicator: TA98, Metabolic Activation: NONE, Method: PREINCUBATION",inactive; negative
same,mutagenic call,[1],inactive; negative
same,mutagenic call,"Test System: AMES SALMONELLA TYPHIMURIUM, Strain/Indicator: TA98, Metabolic Activation: RAT, LIVER, S-9, AROCLOR 1254 (10 OR 30%), Method: PREINCUBATION",inactive; negative
same,mutagenic call,[2],inactive; negative
same,mutagenic call,"Test System: AMES SALMONELLA TYPHIMURIUM, Strain/Indicator: TA100, Metabolic Activation: HAMSTER, LIVER, S-9, AROCLOR 1254 (10 OR 30%), Method: PREINCUBATION",inactive; negative
same,mutagenic call,[3],inactive; negative
same,mutagenic call,[4],inactive; negative
same,mutagenic call,"Test System: AMES SALMONELLA TYPHIMURIUM, Strain/Indicator: TA100, Metabolic Activation: RAT, LIVER, S-9, AROCLOR 1254 (10 OR 30%), Method: PREINCUBATION",inactive; negative
same,mutagenic call,[5],inactive; negative
same,mutagenic call,"Test System: AMES SALMONELLA TYPHIMURIUM, Strain/Indicator: TA1535, Metabolic Activation: HAMSTER, LIVER, S-9, AROCLOR 1254 (10 OR 30%), Method: PREINCUBATION",inactive; negative
same,mutagenic call,[6],inactive; negative
same,mutagenic call,[7],inactive; negative
same,mutagenic call,"Test System: AMES SALMONELLA TYPHIMURIUM, Strain/Indicator: TA1535, Metabolic Activation: RAT, LIVER, S-9, AROCLOR 1254 (10 OR 30%), Method: PREINCUBATION",inactive; negative
same,mutagenic call,[8],inactive; negative
same,mutagenic call,[9],inactive; negative
same,mutagenic call,[10],inactive; negative
same,mutagenic call,[11],inactive; negative
same,mutagenic call,[12],inactive; negative
CCOC(=O)NNc1nncc2ccccc12,mutagenic call,[1],inactive; negative
same,mutagenic call,[2],inactive; negative
same,mutagenic call,[5],inactive; negative
same,mutagenic call,[13],active; positive
same,mutagenic call,[7],inactive; negative
same,mutagenic call,[8],inactive; negative
same,mutagenic call,[9],inactive; negative
same,mutagenic call,[10],inactive; negative
same,mutagenic call,[11],inactive; negative
same,mutagenic call,[12],inactive; negative
same,mutagenic call,[14],inactive; negative
Nc1ccc(CCc2ccccc2)cc1,mutagenic call,[1],inactive; negative
same,mutagenic call,[2],active; positive
same,mutagenic call,[4],inactive; negative
same,mutagenic call,[5],active; positive
Cc1ccc(OCC2CO2)cc1 (configuration not stated),mutagenic call,[3],active; positive
same,mutagenic call,"Test System: AMES SALMONELLA TYPHIMURIUM, Strain/Indicator: TA100, Metabolic Activation: RAT, LIVER, S-9, AROCLOR 1254 (10%), Method: PREINCUBATION",active; positive
same,mutagenic call,"Test System: AMES SALMONELLA TYPHIMURIUM, Strain/Indicator: TA1535, Metabolic Activation: HAMSTER, LIVER, S-9, AROCLOR 1254 (10%), Method: PREINCUBATION",active; positive
same,mutagenic call,[6],active; positive
same,mutagenic call,"Test System: AMES SALMONELLA TYPHIMURIUM, Strain/Indicator: TA1535, Metabolic Activation: RAT, LIVER, S-9, AROCLOR 1254 (10%), Method: PREINCUBATION",active; positive
Nc1ccc(N=Nc2ccccc2)c(N)n1,mutagenic call,"End Point: IN VITRO CHROMOSOMAL ABERRATIONS, Test System: CHINESE HAMSTER OVARY CELLS, Metabolic Activation: NONE",active; positive (ploidy changes)
same,mutagenic call,"End Point: IN VITRO CHROMOSOMAL ABERRATIONS, Test System: CHINESE HAMSTER OVARY CELLS, Metabolic Activation: RAT, LIVER, S-9, AROCLOR 1254","active; positive; authors reported that all doses were toxic, but were scored because of"
same,mutagenic call,"Test System: MOUSE LYMPHOMA, Strain/Indicator: L5178Y (TK+/TK-), Metabolic Activation: NONE, Method: SUSPENSION/PLATE",inactive; negative
same,mutagenic call,"Test System: MOUSE LYMPHOMA, Strain/Indicator: L5178Y (TK+/TK-), Metabolic Activation: RAT, LIVER, S-9, AROCLOR 1254, Method: SUSPENSION/PLATE",active; positive
same,mutagenic call,"Test System: UDS RAT HEPATOCYTES, Strain/Indicator: BROMODEOXYURIDINE INCORP, Metabolic Activation: NONE, Method: FLOW CYTOMETRIC ANALYSIS",active; positive
same,mutagenic call,[14],active; positive
CC(=O)OO[N+](=O)[O-],mutagenic call,"Test System: AMES SALMONELLA TYPHIMURIUM, Strain/Indicator: TA100, Metabolic Activation: NONE",active; positive
same,mutagenic call,"Test System: AMES SALMONELLA TYPHIMURIUM, Strain/Indicator: TA100, Metabolic Activation: RAT, LIVER, S-9, AROCLOR 1254",active; positive
Cc1cncc(C)c1.Cc1cncc(C)c1.[Cl][Pt][Cl],mutagenic call,"Test System: AMES SALMONELLA TYPHIMURIUM, Strain/Indicator: TA92, Metabolic Activation: NONE, Method: STANDARD PLATE",inactive; negative
same,mutagenic call,[1],active; positive
same,mutagenic call,[4],inactive; negative
same,mutagenic call,"Test System: AMES SALMONELLA TYPHIMURIUM, Strain/Indicator: TA2410, Metabolic Activation: NONE, Method: STANDARD PLATE",active; positive
O=c1c2c(O)cccc2oc2cc3c(c(O)c12)[C@@H]1CCO[C@@H]1O3,mutagenic call,"Test System: AMES SALMONELLA TYPHIMURIUM, Strain/Indicator: TA98, Metabolic Activation: RAT, LIVER, S-9, PHENOBARBITAL, Method: STANDARD PLATE",inactive; negative
same,mutagenic call,[13],inactive; negative
Cc1nc2c(C)c(C)c3c(nc(N)n3C)c2nc1C,mutagenic call,[2],active; positive
O=CN(O)c1ccc(Oc2ccc(Cl)cc2Cl)cc1,mutagenic call,[4],inactive; negative
same,mutagenic call,"Test System: AMES SALMONELLA TYPHIMURIUM, Strain/Indicator: TA100, Metabolic Activation: RAT, LIVER, S-9, KANECLOR 500, Method: STANDARD PLATE",active; positive
O=CNNc1nc(-c2ccc([N+](=O)[O-])o2)cs1,mutagenic call,"Test System: AMES SALMONELLA TYPHIMURIUM, Strain/Indicator: TA100, Metabolic Activation: RAT, LIVER, S-9, KC500 OR PHENOBARBITAL, Method: LIQUID SUSPENSION",active; positive
same,mutagenic call,"Test System: E. COLI, Strain/Indicator: WP2, Metabolic Activation: NONE, Method: SPOT",active; positive
same,mutagenic call,"Test System: E. COLI, Strain/Indicator: WP2 UVRA, Metabolic Activation: NONE, Method: SPOT",active; positive
